Test results taken from patent EP0906100B1, “USE OF 5-HT 1A? RECEPTOR ANTAGONISTS FOR THE TREATMENT OF URINARY INCONTINENCE” (RECORDATI S.A., priority 1996, dated 1997).

Experiments:
[1] = test system: rhythmic bladder voiding contractions; assay: Volume-induced rhythmic bladder voiding contractions in anaesthetized rats; format: in vivo; conditions: for AMPLITUDE mm Hg before treatment / FREQUENCY No. contr./15 min before treatment: baseline; for AMPLITUDE mm Hg before treatment / AMPLITUDE mm Hg after treatment: animals with frequency reduction <50%; for AMPLITUDE mm Hg before treatment / FREQUENCY No. contr./15 min before treatment / AMPLITUDE mm Hg after treatment / FREQUENCY No. contr./15 min after treatment: mean±S.E.; for BLADDER CONTRACTIONS Disappearance time: duration of bladder quiescence, mean (S.E. in next cell); for ED (10 min disappearance of contractions) / ED50: Rattus norvegicus, iv; for ED (10 min disappearance of contractions): extrapolated dose inducing 10 min of disappearance of the contractions, linear regression; for ED50: read-out: ED50 FREQUENCY (and 95% confidence limits), quantal criterion (change ≥30% relative to basal value)
Protocol: Female Sprague Dawley rats weighing 225-275 g (Crl: CD° BR, Charles River Italia) were used. The animals were housed with free access to food and water and were maintained on a forced 12 h alternating light-dark cycle at 22-24°C for at least one week, except during the experiment. The activity on the rhythmic bladder voiding contractions was evaluated according to the method of Dray (J. Pharmcol. Methods, 13:157, 1985), with some modifications as in Guarneri (Phannacol. Res., 27:173, 1993). […] The catheter was tied in place with a ligature around the external urethral orifice and was connected with conventional pressure transducers (Statham P23 ID/P23 XL). […] The bladder was then filled via the recording catheter by incremental volumes of warm (37°C) saline until reflex bladder voiding contractions occurred (usually 0.8-1.5 ml). Two parameters were recorded from the cystometrogram: the frequency of voiding contractions, calculated by counting the number of peaks/15 min of observation, and the mean amplitude of these contractions (mean height of the peaks in mmHg) in the same time period. For intravenous (i. v. ) injection of bioactive compounds, a PE 50 polyethylene tubing filled with physiological saline was inserted into the jugular vein.
Bioactivity was assessed in individual animals (using 6-10 rats per dose), by recording the number and height of the peaks for 15 min after drug injection and comparing them with those previously recorded for 15 min after the intravenous administration of vehicle alone. […] The statistical significance of changes in frequency and amplitude before and after treatment was assessed by Student's t test for paired data. Changes showing a probability P<0.01 were considered significant.
An all-or-none criterion was also used to compare bioactivity in terms of ED50 values. Rats showing a treatment-related change of ≥30% relative to the basal value were considered to be positive. Quantal dose-response curves and ED50 values were evaluated by the method of Bliss (J. Pharm. Pharmacol., 11:192, 1938).
The rapid distension of the urinary bladder in urethane-anaesthetized rats produced a series of rhythmic bladder voiding contractions whose characteristics have been described (Maggie et al., Brain Res., 380, 83, 1986; Maggi, et al., J. Pharmacol. Exp. Ther., 230, 500, 1984). The frequency of these contractions is related to the sensory afferent arm of reflex micturition and to the integrity of the micturition centre, while their amplitude is a property of the efferent arm of the reflex (Maggi et al., J. Pharmacol. Meth., 15, 157, 1986; Maggi et al., Brain Res.. 415, 1, 1987; Maggi et al., Naun. Schmied. Arch. Pharmacol., 332, 276, 1986; Maggi et al., J. Urol., 136, 696, 1986).

α1-adrenergic receptor = assay: [3H]prazosin binding (α1-receptors), rat cerebral cortices; conditions: 0.35 nM [3H]prazosin, read-out: Binding affinity for the α1-adrenergic receptor, Ki
Protocol: [^3H]prazosin binding (α1-receptors):
Rat cerebral cortices were homogenized in 50 volumes of ice-cold 50 mM Tris-HCl pH 7.4. The homogenates were centrifuged at 48,000 x g for 10 minutes, and the pellets were resuspended in the same volume of ice-cold buffer, centrifuged, and resuspended two more times. The final pellets were resuspended in 100 volumes of 50 mM Tris-HCl, pH 7.4, containing 0.1 % ascorbic acid and 10 µM pargyline. […] Non-specific binding was determined in the presence of 10 µM phentolamine. The incubations were terminated by rapid filtration through Whatman GF/B filters using a Brandel cell harvester, after which the filters were washed with 3x3 ml of ice-cold buffer. The radioactivity retained on the filters was determined by liquid scintillation counting.

[2] = i.v., inhibition of frequency of rhythmic bladder voidings (ED50)

O=C(C1CCCCC1)N(CCN1CCN(c2cccc3[nH]ccc23)CC1)c1ccccn1 [Compound B, N-{2-[4-(4-Indolyl)-1-piperazinyl]-ethyl}-N-(2-pyridyl)-cyclohexanecarboxamide]
AMPLITUDE mm Hg before treatment ([1]; 0.3 µg/kg i.v. group): 31.0±3.7 mm Hg | FREQUENCY No. contr./15 min before treatment ([1]; 0.3 µg/kg i.v. group): 10.7±1.4 No. contr./15 min | AMPLITUDE mm Hg after treatment ([1]; 0.3 µg/kg i.v.): 27.7±4.1 mm Hg | BLADDER CONTRACTIONS Disappearance time ([1]; 0.3 µg/kg i.v.): 1.10 min | FREQUENCY No. contr./15 min after treatment ([1]; 0.3 µg/kg i.v.): 11.3±1.7 No. contr./15 min | AMPLITUDE mm Hg before treatment ([1]; 1 µg/kg i.v. group): 26.5±4.3 mm Hg | FREQUENCY No. contr./15 min before treatment ([1]; 1 µg/kg i.v. group): 11.7±1.5 No. contr./15 min | AMPLITUDE mm Hg after treatment ([1]; 1 µg/kg i.v.): 22.7±5.1 mm Hg | BLADDER CONTRACTIONS Disappearance time ([1]; 1 µg/kg i.v.): 4.33 min | FREQUENCY No. contr./15 min after treatment ([1]; 1 µg/kg i.v.): 8.7±1.3 No. contr./15 min | AMPLITUDE mm Hg before treatment ([1]; 3 µg/kg i.v. group): 33.7±2.4 mm Hg | FREQUENCY No. contr./15 min before treatment ([1]; 3 µg/kg i.v. group): 9.7±0.8 No. contr./15 min | AMPLITUDE mm Hg after treatment ([1]; 3 µg/kg i.v.): 25.3±1.2 mm Hg | BLADDER CONTRACTIONS Disappearance time ([1]; 3 µg/kg i.v.): 7.58 min | FREQUENCY No. contr./15 min after treatment ([1]; 3 µg/kg i.v.): 4.7±1.1 No. contr./15 min | AMPLITUDE mm Hg before treatment ([1]; 10 µg/kg i.v. group): 19.0 mm Hg | FREQUENCY No. contr./15 min before treatment ([1]; 10 µg/kg i.v. group): 11.7±1.7 No. contr./15 min | AMPLITUDE mm Hg after treatment ([1]; 10 µg/kg i.v.): 17.0 mm Hg | BLADDER CONTRACTIONS Disappearance time ([1]; 10 µg/kg i.v.): 10.00 min | FREQUENCY No. contr./15 min after treatment ([1]; 10 µg/kg i.v.): 4.2±0.9 No. contr./15 min | FREQUENCY No. contr./15 min before treatment ([1]; 30 µg/kg i.v. group): 12.0±1.1 No. contr./15 min | BLADDER CONTRACTIONS Disappearance time ([1]; 30 µg/kg i.v.): 8.85 min | FREQUENCY No. contr./15 min after treatment ([1]; 30 µg/kg i.v.): 4.5±1.4 No. contr./15 min | ED (10 min disappearance of contractions) [1]: 9 µg/kg | ED50 ([1]; i.v.): 1 µg/kg | fold more active than NAN-190 [1, 2]: 46 fold | fold more active than flavoxate [1, 2]: 2650 fold | Ki (α1-adrenergic receptor): 458 nM

COc1ccccc1N1CCN(CCCCN2C(=O)c3ccccc3C2=O)CC1 [NAN-190, 1-(2-methoxyphenyl)-4-[4-(2-phthalimido)-butyl]-piperazine]
AMPLITUDE mm Hg before treatment ([1]; 30 µg/kg i.v. group): 30.2±3.7 mm Hg | FREQUENCY No. contr./15 min before treatment ([1]; 30 µg/kg i.v. group): 13.5±1.2 No. contr./15 min | AMPLITUDE mm Hg after treatment ([1]; 30 µg/kg i.v.): 26.1±3.1 mm Hg | BLADDER CONTRACTIONS Disappearance time ([1]; 30 µg/kg i.v.): 1.80 min | FREQUENCY No. contr./15 min after treatment ([1]; 30 µg/kg i.v.): 11.8±1.5 No. contr./15 min | AMPLITUDE mm Hg before treatment ([1]; 100 µg/kg i.v. group): 22.5±1.7 mm Hg | FREQUENCY No. contr./15 min before treatment ([1]; 100 µg/kg i.v. group): 13.6±1.0 No. contr./15 min | AMPLITUDE mm Hg after treatment ([1]; 100 µg/kg i.v.): 17.3±2.9 mm Hg | BLADDER CONTRACTIONS Disappearance time ([1]; 100 µg/kg i.v.): 6.34 min | FREQUENCY No. contr./15 min after treatment ([1]; 100 µg/kg i.v.): 6.4±1.1 No. contr./15 min | AMPLITUDE mm Hg before treatment ([1]; 300 µg/kg i.v. group): 24.1±1.8 mm Hg | FREQUENCY No. contr./15 min before treatment ([1]; 300 µg/kg i.v. group): 11.8±1.1 No. contr./15 min | AMPLITUDE mm Hg after treatment ([1]; 300 µg/kg i.v.): 17.6±1.7 mm Hg | BLADDER CONTRACTIONS Disappearance time ([1]; 300 µg/kg i.v.): 5.47 min | FREQUENCY No. contr./15 min after treatment ([1]; 300 µg/kg i.v.): 6.6±1.1 No. contr./15 min | ED (10 min disappearance of contractions) [1]: > 300 µg/kg | ED50 ([1]; i.v.): 46 µg/kg | Ki (α1-adrenergic receptor): 4.8 nM
